In PMC3791137 (Journal of the American Chemical Society, 2013):

How the values were obtained:
[1] = common buffers, physiological pH; cited from earlier work
NSCs = assay: Sin-1-induced ZBR1 fluorescence change; assay type: cell-based, rat; details: 100 μM Sin-1, first 15 min; vehicle 105 ± 7%
[2] = pH 9.5, excitation 572 nm; cited from earlier work

## N=c1c[n+](N2CCOCC2)[n-]o1 [Sin-1, 3-morpholinosydnonimine]
[1]
  Half-life: 14 to 26 min
NSCs
  Fluorescence intensity of ZBR1 after Sin-1: 89 ± 4%

## O=c1ccc2nc3ccc(O)cc3oc-2c1 [resorufin]
[2]
  Quantum yield (standard): 0.74
